US8076285B2, “Lysobactin amides” (Aicuris GmbH & Co. KG, priority 2006, dated 2011)
Values after ≈ are worked out from the molar mass of the structure shown. *1 amine or outer side, *2 acyl side, *3 side chain or, on linkers, in order; H or OH if unused. Where a SMILES comes first, the peptide text is derived from it. Bridges are numbered along the chain shown (N, C = ends). [ ]: non-standard residue; d: D form. ξ: configuration not given here. Phe(3R-OH) = O=C([C@@H](N[*:1])[C@H](O[*:3])c1ccccc1)[*:2]; Phe(βR-NH) = O=C([C@@H](N[*:1])[C@H](N[*:3])c1ccccc1)[*:2]; Asn(3S-OH) = NC(=O)[C@@H](O)[C@H](N)C(=O)O; Leu(3R-OH) = CC(C)[C@@H](O)[C@H](N)C(=O)O; d(tBuAla) = CC(C)(C)C[C@@H](N)C(=O)O; tBuAla = CC(C)(C)C[C@H](N)C(=O)O; aThr = C[C@H](O)[C@H](N)C(=O)O; ξS = NC(CO)C(=O)O

Tests used:
[1] = system: Enterococcus faecalis 27159; assay type: cell-based; conditions: 27159
Method: (§1) Determination of the Minimum Inhibitory Concentration (MIC):
(§2) The MIC is determined in the liquid dilution test in accordance with the NCCLS guidelines. Overnight cultures of Staphylococcus aureus 133, Enterococcus faecalis 27159, E. faecium 4147 and Streptococcus pneumoniae G9a are incubated with the described test substances in a 1:2 dilution series. The MIC determination is carried out with a cell count of 10^5 microbes per ml in Isosensitest medium (Difco, Irvine/USA), with the exception of S. pneumoniae which is tested in BHI broth (Difco, Irvine/USA) with 10% bovine serum with a cell count of 10^6 microbes per ml. The cultures are incubated at 37° C. for 18-24 hours, S. pneumoniae in the presence of 10% CO2.
(§3) The MIC is defined as the lowest concentration of each substance at which no visible bacterial growth occurs any longer. The MIC values are reported in μg/ml.

[2] = system: Staphylococcus aureus 133; assay type: cell-based; conditions: 133
Method: as §1, §2, §3

[3] = system: Streptococcus pneumoniae G9a; assay type: cell-based; conditions: G9a
Method: as §1, §2, §3

[4] = Chemical stability in alkaline aqueous solution (buffer pH 7.8, HPLC); assay type: physicochemical; conditions: aqueous neutral to basic medium (pH>7)
Method: Determination of the Chemical Stability in Stability Alkaline Aqueous Solution:
0.3 mg of the test substance are dissolved in a mixture of 0.25 ml of acetonitrile, 0.25 ml of DMSO and 0.5 ml of buffer of pH 7.8 (consisting of 111 mg (1 mmol) of calcium chloride, 7.91 g (100 mmol) of ammonium bicarbonate, 100 ml of acetonitrile ad 1000 ml) and left to stand at room temperature. A 5 μl aliquot is taken from the solution once an hour and analyzed by HPLC (method 57). The concentration of the test compound at time 0 h, indicated by the UV absorption (1E), is set equal to 100%, and the decrease over time is observed. At the same time, the increase in the ring-opened degradation product is observed.

[5] = amide bond; 28-membered ring; HATU/NMM; DMF; 0.0 °C

Compound | MIC E. faecalis ICB 27159 [1] | MIC S. aureus 133 [2] | MIC S. pneumoniae G9a [3] | hydrolysis (opening of the lactone) in aqueous medium [4] | ring closure, crude yield [5]
CC[C@H](C)[C@@H]1NC(=O)[C@@H](CCCNC(=N)N)NC(=O)[C@H](CC(C)C)NC(=O)[C@H]([C@H](O)C(C)C)NC(=O)[C@@H](NC(=O)[C@H](CC(C)C)NC(=O)[C@H](N)CC(C)C)[C@@H](c2ccccc2)OC(=O)[C@H](CO)NC(=O)[C@H]([C@H](O)C(N)=O)NC(=O)CNC(=O)[C@H]([C@H](C)O)NC1=O [Lysobactin, lysobactin] (H-[dL]L[Phe(3R-OH)][Leu(3R-OH)]L[dR]I[aThr]G[Asn(3S-OH)]S; ester 3-C (inferred); N-terminus assumed) | 0.5 mg/L (≈ 0.392 µM) | 0.5 mg/L (≈ 0.392 µM) | 0.063 mg/L (≈ 0.0494 µM) | hydrolyzed in an aqueous neutral to basic medium (pH>7) within days | 
[(3R)-N^2-(Benzyloxycarbonyl)-3-amino-L-phenylalanyl]-[(3R)-3-hydroxy-L-leucyl]-L-leucyl-D-arginyl-L-isoleucyl-L-allothreonyl-glycyl-L-allothreonyl-L-aserinate C^1.9-N^3.1-lactam trifluoroacetate |  |  |  |  | 86%
CC[C@H](C)[C@@H]1NC(=O)[C@@H](CCCNC(=N)N)NC(=O)[C@H](CC(C)C)NC(=O)[C@H]([C@H](O)C(C)C)NC(=O)[C@@H](NC(=O)[C@H](CC(C)(C)C)NC(=O)[C@H](N)CC(C)(C)C)[C@@H](c2cccnc2)NC(=O)C(CO)NC(=O)C([C@H](O)C(N)=O)NC(=O)CNC(=O)[C@H]([C@H](C)O)NC1=O (stereo partly drawn) [Example 44, [3-tert-Butyl-D-alanyl]-[3-tert-butyl-L-alanyl]-[(3R)-3-amino-3-(pyridin-3-yl)-L-alanyl]-[(3R)-3-hydroxy-L-leucyl]-L-leucyl-D-arginyl-L-isoleucyl-L-allothreonyl-glycyl-[(3S)-3-hydroxy-L-asparaginyl]-L-serine C^1.11-N^3.3-lactam tristrifluoroacetate] | 0.5 mg/L (≈ 0.383 µM) | 0.25 mg/L (≈ 0.192 µM) | 0.125 mg/L (≈ 0.0958 µM) |  | 
CC[C@H](C)[C@@H]1NC(=O)[C@@H](CCCNC(=N)N)NC(=O)[C@H](CC(C)C)NC(=O)[C@H]([C@H](O)C(C)C)NC(=O)[C@@H](NC(=O)[C@H](CC(C)(C)C)NC(=O)[C@H](N)CC(C)(C)C)[C@@H](c2ccccc2)NC(=O)C(CO)NC(=O)[C@H](CO)NC(=O)CNC(=O)[C@H](CO)NC1=O (stereo partly drawn) [Example 23, [3-tert-Butyl-D-alanyl]-[3-tert-butyl-L-alanyl]-[(3R)-3-amino-L-phenylalanyl]-[(3R)-3-hydroxy-L-leucyl]-L-leucyl-D-arginyl-L-isoleucyl-L-seryl-glycyl-L-seryl-L-serine C^1.11-N^3.3-lactam bistrifluoroacetate] (H-[d(tBuAla)][tBuAla][Phe(βR-NH)][Leu(3R-OH)]L[dR]ISGS[ξS]; lactam 3-C) | 1 mg/L (≈ 0.802 µM) | 0.5 mg/L (≈ 0.401 µM) | 0.25 mg/L (≈ 0.201 µM) |  | 
